For this assay, the target named is MAPK14;MAPK11;MAPK12 (human) (UniProt Q16539). As to the kind of experiment: Inhibition of p38 Kinase Activity.

As usually defined, the IC50 is the concentration that inhibits the measured activity by half. A lower IC50 goes with greater potency in that assay.

A value given as a limit tells only on which side of the number the result lay.

Consider `CONC(=O)c1ccc(C)c(Nc2nc(N(C)CCN(C)C)nc(N(C)CC(C)(C)C)n2)c1`, for which the IC50 was less than 1 µM.

Take `CCCNC(=O)c1ccc(C)c(Nc2nc(O[C@H]3CCNC3)nc(N(C)CC(C)(C)C)n2)c1`: the IC50 was less than 1 µM.

In turn, `CC(C)NC(=O)N1CC2CC1CN2c1nc(NCC(C)c2ccccc2)nc(Nc2ccc3ncsc3c2)n1` (configuration not stated) displayed a half-inhibitory concentration (IC50) of less than 10 µM.

The compound `Cc1ccc(C(N)=O)cc1Nc1nc(NCC2(c3ccc(Cl)cc3)CC2)nc(N[C@H]2CCNC2)n1` came in with a half-maximal inhibitory concentration (IC50) of less than 1 µM.

`CONC(=O)c1ccc(C)c(Nc2nc(N[C@@H]3CCNC3)nc(N(C)CC(C)C(F)(F)F)n2)c1` (some centres not stated) displayed an IC50 of less than 1 µM.

`CN(CCN(C)c1nc(NCc2ccc(F)cc2F)nc(-n2cnc3ccccc32)n1)C(=O)CCC(=O)O` registered an IC50 of less than 10 µM.

`CC(CNc1nc(Cl)nc(Nc2ccc3ncsc3c2)n1)c1ccc(Cl)cc1` (configuration not stated) returned a 50% inhibitory concentration (IC50) of less than 10 µM.

With `CONC(=O)c1ccc(C)c(Nc2nc(N[C@H]3CCNC3)cc(N(C)CC(C)(C)C)n2)c1`, the half-maximal inhibitory concentration (IC50) is less than 1 µM.

In turn, `Cc1ccc(C(N)=O)cc1Nc1nc(N[C@H]2CCN(C3CCCCC3)C2)nc(N(C)CC(C)(C)C)n1` displayed an IC50 of less than 1 µM.

The compound `Cc1ccc2c(c1Nc1nc(N[C@H]3CCNC3)nc(N(C)CC(C)(C)C)n1)CNC2=O` yielded an IC50 of less than 1 µM.

`CONC(=O)c1ccc(C)c(Nc2nc(N[C@H]3CCNC3)nc(N(C)CC(C)(C)C)n2)c1` yielded an IC50 of less than 1 µM.

`Cc1ccc(C(N)=O)cc1Nc1cc(NC(C)c2ccccc2)nc(NCC(N)=O)n1` (configuration not stated): the IC50 is less than 1 µM.

In turn, `Cc1ccc(C(N)=O)cc1Nc1nc(NCC2CCNCC2)nc(NC(C)C2CCCCC2)n1` (configuration not stated) returned an IC50 of less than 1 µM.

Consider `CNC1CCN(c2cc(NCCOC(C)C)nc(-n3cnc4cc(C)ccc43)n2)C1` (configuration not stated), for which the concentration for half-maximal inhibition (IC50) is less than 10 µM.

Regarding `Cc1ccc(C(N)=O)cc1Nc1nc(NCC2CC3CCC2C3)nc(N[C@H]2CCNC2)n1` (some centres not stated), the IC50 is less than 1 µM.

For the compound `Cc1ccc(C(N)=O)cc1Nc1nc(N[C@H]2CCNC2)nc(N(C)C[C@H](C)c2ccccc2)n1`, the 50% inhibitory concentration (IC50) was less than 1 µM.

On to `CCONC(=O)c1ccc(C)c(Nc2nc(N[C@H]3CCNC3)nc(N(C)CC(C)C)n2)c1`, for which the IC50 is less than 1 µM.

`Cc1ccc(C(N)=O)cc1Nc1nc(NCC(C)(C)C)nc(N[C@H]2CCNC2)n1` had a half-maximal inhibitory concentration (IC50) of less than 1 µM.

`COC1CCCC(C(=O)N2CCN(c3nc(NCC(C)c4ccccc4)nc(Nc4ccc5ncsc5c4)n3)CC2)C1` (configuration not stated) had an IC50 of less than 10 µM.

The compound `COc1ccccc1NC(=O)c1ccc(C)c(Nc2nc(N[C@H]3CCNC3)nc(N(C)CC(C)(C)C)n2)c1` gave an IC50 of less than 1 µM.

`CC(CNc1nc(Nc2ccc3ncsc3c2)nc(N(C)CCCN(C)C(=O)c2ccccc2)n1)c1ccccc1` (configuration not stated) showed an IC50 of less than 10 µM.

`CCN1CCC[C@@H](Nc2nc(Nc3cc(C(N)=O)ccc3C)nc(N(C)CC(C)(C)C)n2)C1` returned a half-maximal inhibitory concentration (IC50) of less than 1 µM.

In the case of `Cc1ccc(C(N)=O)cc1Nc1nc(NC[C@@H]2CC[C@H]3C[C@H]2C3(C)C)nc(N[C@H]2CCNC2)n1`, the IC50 is less than 1 µM.

In turn, `CCCc1ccc(C(N)=O)cc1Nc1nc(N[C@H]2CCNC2)nc(N(C)CC(C)(C)C)n1` had an IC50 of less than 1 µM.

The compound `Cc1ccc(C(N)=O)cc1Nc1nc(N[C@H]2CCN(C(C#N)c3ccccc3)C2)nc(N(C)CC(C)(C)C)n1` (some centres not stated) yielded an IC50 of less than 1 µM.

The compound `Cc1ccc(C(=O)NCC(F)(F)F)cc1Nc1nc(N[C@H]2CCNC2)nc(N(C)CC(C)(C)C)n1` showed a 50% inhibitory concentration (IC50) of less than 1 µM.

Turning to `Cc1ccc(CO)cc1Nc1nc(N[C@H]2CCNC2)nc(N(C)CC(C)(C)C)n1`, the IC50 is less than 1 µM.

`Cc1ccc(C(N)=O)cc1Nc1nc(NCCc2ccc(O)cc2)nc(N[C@H]2CCNC2)n1` came in with a 50% inhibitory concentration (IC50) of less than 1 µM.

For the compound `C[C@H](CNc1nc(Nc2ccc3ncsc3c2)nc(N(C)CCN(C)C(=O)CCC(=O)O)n1)c1ccccc1`, the IC50 is less than 10 µM.

With `COCCNC(=O)c1ccc(C)c(Nc2nc(N[C@H]3CCNC3)nc(N(C)CC(C)(C)C)n2)c1`, the IC50 was less than 1 µM.

In the case of `Cc1ccc2c(c1)ncn2-c1nc(F)cc(NCCOC(C)C)n1`, the IC50 was less than 10 µM.

Take `Cc1ccc(C(N)=O)cc1Nc1nc(NC[C@@H]2CC[C@H]3C[C@H]2C3(C)C)nc(NC2CCNCC2)n1`: the IC50 is less than 1 µM.

`Cc1c(Cl)cc(C(N)=O)cc1Nc1nc(N[C@H]2CCNC2)nc(N(C)CC(C)C)n1` displayed an IC50 of less than 1 µM.

In turn, `C[C@H](CNc1nc(Cl)nc(Nc2ccc3ncsc3c2)n1)c1ccccc1` returned a half-inhibitory concentration (IC50) of less than 10 µM.

Compound `Cc1ccc(C(N)=O)cc1Nc1nc(N[C@H]2CCNC2)nc(N(C)CC(C)c2ccc(Cl)cc2)n1` (some centres not stated) returned a half-maximal inhibitory concentration (IC50) of less than 1 µM.

The compound `CC(=O)N1CC2CC1CN2c1nc(NCC(C)c2ccccc2)nc(Nc2ccc3ncsc3c2)n1` (configuration not stated) came in with an IC50 of less than 10 µM.

As to `NC(=O)CNc1nc(NCCc2ccccc2)nc(Nc2ccc3ncsc3c2)n1`, the IC50 was less than 10 µM.

With `NC(=O)C1CCN(c2nc(Nc3ccc4ncsc4c3)cc(NC3CCC3)n2)CC1`, the 50% inhibitory concentration (IC50) was less than 10 µM.

In turn, `Cc1ccc2ncn(-c3nc(NCCOC(C)C)cc(N(C)C)n3)c2c1` displayed an IC50 of less than 10 µM.

Take `CONC(=O)c1ccc(C)c(Nc2cc(F)nc(N(C)CC(C)(C)C)n2)c1`: the concentration for half-maximal inhibition (IC50) is less than 1 µM.

As for `COCCCN1CCC(Nc2nc(Nc3cc(C(N)=O)ccc3C)nc(N(C)CC(C)C)n2)C1` (configuration not stated), the IC50 is less than 1 µM.

The compound `CONC(=O)c1ccc(C)c(Nc2nc(NCc3ccccn3)nc(N(C)CC(C)(C)C)n2)c1` displayed an IC50 of less than 1 µM.

Compound `CCCC1(C)CCN(c2nc(Nc3cc(C(N)=O)ccc3C)nc(N[C@@H]3CCNC3)n2)C1` (some centres not stated) registered a 50% inhibitory concentration (IC50) of less than 1 µM.

Take `Cc1ccc(C(N)=O)cc1Nc1nc(N[C@H]2CCN(Cc3ccccc3)C2)nc(N(C)CC(C)C)n1`: the IC50 is less than 1 µM.

As to `Cc1ccc(C(N)=O)cc1Nc1nc(N[C@H]2CCN(C3CCCC3)C2)nc(N(C)CC(C)(C)C)n1`, the IC50 is less than 1 µM.

Regarding `Cc1cccc(CN2CC[C@H](Nc3nc(Nc4cc(C(N)=O)ccc4C)nc(N(C)CC(C)C)n3)C2)c1`, the IC50 was less than 1 µM.

On to `CC(C)C(=O)N1CCN(c2nc(NCC(C)c3ccccc3)nc(Nc3ccc4ncsc4c3)n2)CC1` (configuration not stated), for which the half-maximal inhibitory concentration (IC50) was less than 10 µM.

In turn, `CC(C)(Cc1ccccc1)Nc1nc(Nc2ccc3ncsc3c2)nc(N2CCNCC2)n1` had an IC50 of less than 10 µM.

`CCOCNc1nc(NCC(C)c2ccccc2)nc(Nc2ccc3ncsc3c2)n1` (configuration not stated): the half-inhibitory concentration (IC50) is less than 10 µM.

As for `CNCCN(C)c1nc(NCC(C)c2ccccc2)nc(Oc2ccc3ncsc3c2)n1` (configuration not stated), the 50% inhibitory concentration (IC50) is less than 10 µM.

Regarding `COc1cccc(NC(=O)c2ccc(C)c(Nc3nc(N[C@H]4CCNC4)nc(N(C)CC(C)(C)C)n3)c2)c1`, the IC50 is less than 1 µM.

`COc1ccc(NC(=O)c2ccc(C)c(Nc3nc(N[C@H]4CCNC4)nc(N(C)CC(C)(C)C)n3)c2)cc1`: the IC50 is less than 1 µM.

The compound `CCCN1CC[C@@H](Nc2nc(Nc3cc(C(N)=O)ccc3C)nc(N(C)CC(C)C)n2)C1` had an IC50 of less than 1 µM.

Take `CC(CNc1nc(Nc2ccc3ncsc3c2)nc(N(C)C)n1)c1ccccc1` (configuration not stated): the half-maximal inhibitory concentration (IC50) was less than 10 µM.

`CCCNC(=O)N1CC[C@@H](Nc2nc(Nc3cc(C(=O)NOC)ccc3C)nc(N(C)CC(C)(C)C)n2)C1` showed an IC50 of less than 1 µM.

Compound `CC(CNc1nc(Nc2ccc3ncsc3c2)nc(N2CCN(C(=S)NC3CCCCC3)CC2)n1)c1ccccc1` (configuration not stated) yielded an IC50 of less than 10 µM.

Compound `CONC(=O)c1ccc(C)c(Nc2nc(NCCNC(C)=O)nc(N(C)CC(C)(C)C)n2)c1` came in with a concentration for half-maximal inhibition (IC50) of less than 1 µM.

On to `CONC(=O)c1ccc(C)c(Oc2nc(NCc3ccccn3)nc(N(C)CC(C)(C)C)n2)c1`, for which the concentration for half-maximal inhibition (IC50) was less than 30 µM.

Compound `CN(CC1CCC2CC1C2(C)C)c1nc(Nc2ccc3ncsc3c2)nc(N2CCN(S(C)(=O)=O)CC2)n1` (configuration not stated) returned a concentration for half-maximal inhibition (IC50) of less than 10 µM.

Turning to `CNCCN(C)c1nc(NCc2ccc3c(c2)OCO3)nc(NCC(C)c2ccccc2)n1` (configuration not stated), the IC50 was less than 10 µM.

With `Cc1ccc(C(N)=O)cc1Nc1nc(N[C@@H]2CCN(C(C)C)C2)nc(N(C)CC(C)(C)C)n1`, the IC50 is less than 1 µM.

`Cc1ccc(C(N)=O)cc1Nc1nc(NCC(C)c2ccccc2)nc(N[C@@H]2CCNC2)n1` (some centres not stated): the IC50 is less than 1 µM.

Take `CC(=O)N1CCN(c2nc(NCC(C)c3ccccc3)nc(Nc3ccc4ncsc4c3)n2)CC1` (configuration not stated): the 50% inhibitory concentration (IC50) was less than 10 µM.

Compound `CCONC(=O)c1ccc(C)c(Nc2nc(NC)cc(N(C)CC(C)(C)C)n2)c1` came in with an IC50 of less than 1 µM.

On to `Cc1ccc(C(N)=O)cc1Nc1nc(N)nc(NC[C@@H]2CC[C@H]3C[C@@H]2C3(C)C)n1`, for which the IC50 was less than 1 µM.

In turn, `Cc1ccc(C(N)=O)cc1Nc1nc(N[C@H]2CCN(Cc3cccnc3)C2)nc(N(C)CC(C)C)n1` registered an IC50 of less than 1 µM.

For `COc1ccc(CN2CCC(Nc3nc(Nc4cc(C(N)=O)ccc4C)nc(N(C)CC(C)C)n3)C2)cc1` (configuration not stated), the concentration for half-maximal inhibition (IC50) is less than 1 µM.

On to `CCONC(=O)c1ccc(C)c(Nc2cc(N(C)CC(C)(C)C)nc(N3CCCN(C)CC3)n2)c1`, for which the IC50 was less than 1 µM.

For the compound `Cc1ccc2c(c1Nc1nc(NCC(C)(C)C)nc(N[C@H]3CCNC3)n1)CNC2=O`, the half-maximal inhibitory concentration (IC50) was less than 1 µM.

In turn, `Cc1ccc(-c2n[nH]c(=O)[nH]2)cc1Nc1nc(N[C@@H]2CCNC2)nc(N(C)CC(C)(C)C)n1` showed an IC50 of less than 1 µM.

For `CNc1nc(NCc2ccccc2OC)nc(Nc2ccc3ncsc3c2)n1`, the IC50 is less than 10 µM.

As for `CONC(=O)c1ccc(C)c(Nc2nc(N(C)CC(C)(C)C)nc(N3CCCCC3)n2)c1`, the IC50 is less than 1 µM.

Compound `Cc1ccc(C(N)=O)cc1Nc1nc(NC2CCCCNC2)nc(N(C)CC(C)(C)C)n1` (configuration not stated) displayed a half-maximal inhibitory concentration (IC50) of less than 1 µM.

Compound `Cc1ccc(C(=O)NC(C)C)cc1Nc1nc(N[C@H]2CCNC2)nc(N(C)CC(C)C)n1` yielded a half-maximal inhibitory concentration (IC50) of less than 1 µM.

Compound `CONC(=O)c1ccc(C)c(Nc2nc(NC(C)c3ccccn3)nc(N(C)CC(C)(C)C)n2)c1` (configuration not stated) had an IC50 of less than 1 µM.

For `Cc1ccc(C(N)=O)cc1Nc1nc(N[C@H]2CCCC[C@H]2NC(C)C)nc(N(C)CC(C)(C)C)n1`, the IC50 is less than 1 µM.

Take `CNC(=O)C1CCN(c2nc(NC[C@@H]3CC[C@@H]4C[C@H]3C4(C)C)nc(Nc3ccc4ncsc4c3)n2)CC1`: the IC50 was less than 10 µM.

As to `CCNC(=O)c1ccc(C)c(Nc2nc(NCC(C)(C)C)nc(N[C@H]3CCNC3)n2)c1`, the IC50 was less than 1 µM.

In the case of `CC(CCCCCCNc1nc(NCC(C)c2ccccc2)nc(Nc2ccc3ncoc3c2)n1)C(N)=O` (configuration not stated), the IC50 was less than 10 µM.

`CCCCOc1nc(Nc2cc(C(N)=O)ccc2C)nc(NC2CCCC2)n1` returned a 50% inhibitory concentration (IC50) of less than 1 µM.

The compound `CCOC(=O)Nc1ccc(C)c(Nc2nc(N[C@H]3CCNC3)nc(N(C)CC(C)(C)C)n2)c1` gave an IC50 of less than 1 µM.

In turn, `CONC(=O)c1ccc(C)c(Oc2nc(N[C@@H]3CCNC3)nc(N(C)CC(C)(C)C)n2)c1` had an IC50 of less than 30 µM.

The values above are taken from the Kinase Knowledgebase extract (Sharma et al. 2016).
